According to patent US10597387B2, “Methods to treat lymphoplasmacytic lymphoma” (Dana-Farber Cancer Institute, Inc., priority 2013, dated 2020):
Read-outs that look alike come from different tables or passages of the source.

Key:
Test in all cases: KiNativ kinase profiling
AMPKa1, AMPKa2 = type: binding, Homo sapiens; conditions: Lys1, 1 μM, A375 cells
ATR = ATR (Homo sapiens (Human), UniProt Q13535); type: binding; conditions: ATP, A375 cells, read-out: inhibition of kinase labeling
AurA = AurA (Homo sapiens (Human), UniProt O14965); type: binding; conditions: Lys2, A375 cells, read-out: inhibition of kinase labeling
BTK = BTK (Homo sapiens (Human), UniProt Q06187); type: binding; conditions: read-out: inhibition of kinase labeling
Chain of BTK (Q06187 whole entry): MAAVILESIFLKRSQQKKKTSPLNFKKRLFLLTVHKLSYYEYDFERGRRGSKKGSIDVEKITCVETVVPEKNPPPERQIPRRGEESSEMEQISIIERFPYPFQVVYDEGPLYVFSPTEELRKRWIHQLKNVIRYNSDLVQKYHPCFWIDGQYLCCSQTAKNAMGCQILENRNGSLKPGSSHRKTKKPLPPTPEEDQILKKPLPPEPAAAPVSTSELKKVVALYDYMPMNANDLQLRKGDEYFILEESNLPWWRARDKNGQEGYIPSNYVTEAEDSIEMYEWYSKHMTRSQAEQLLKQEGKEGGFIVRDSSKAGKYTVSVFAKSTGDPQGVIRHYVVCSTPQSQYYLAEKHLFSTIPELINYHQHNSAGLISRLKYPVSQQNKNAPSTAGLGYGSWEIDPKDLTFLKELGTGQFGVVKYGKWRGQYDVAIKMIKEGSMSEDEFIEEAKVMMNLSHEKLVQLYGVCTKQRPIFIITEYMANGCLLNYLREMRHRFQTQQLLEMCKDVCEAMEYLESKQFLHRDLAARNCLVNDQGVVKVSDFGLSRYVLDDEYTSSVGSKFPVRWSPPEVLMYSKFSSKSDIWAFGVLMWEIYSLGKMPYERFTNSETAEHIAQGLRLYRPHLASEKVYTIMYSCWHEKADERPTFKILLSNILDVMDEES

CaMK1d = CaMK1d (Homo sapiens (Human), UniProt Q8IU85); type: binding; conditions: Lys1, A375 cells, read-out: inhibition of kinase labeling
CaMK4 = CaMK4 (Homo sapiens (Human), UniProt Q16566); type: binding; conditions: Lys2, A375 cells, read-out: inhibition of kinase labeling
CDK2 = CDK2 (Homo sapiens (Human), UniProt P24941); type: binding; conditions: Lys2, A375 cells, read-out: inhibition of kinase labeling
CDK5 = CDK5 (Homo sapiens (Human), UniProt Q00535); type: binding; conditions: Lys2, A375 cells, read-out: inhibition of kinase labeling
Chain of CDK5 (Q00535 whole entry): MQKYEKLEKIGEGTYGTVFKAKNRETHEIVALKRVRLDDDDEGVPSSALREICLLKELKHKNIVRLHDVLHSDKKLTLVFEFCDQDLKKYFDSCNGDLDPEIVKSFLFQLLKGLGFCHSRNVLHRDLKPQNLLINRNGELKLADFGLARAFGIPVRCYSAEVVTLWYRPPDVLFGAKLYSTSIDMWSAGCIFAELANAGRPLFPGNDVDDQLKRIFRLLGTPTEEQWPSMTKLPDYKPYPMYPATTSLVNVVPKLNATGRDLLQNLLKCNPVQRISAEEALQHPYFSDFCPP

CHK2 = CHK2 (Homo sapiens (Human), UniProt O96017); type: binding; conditions: Lys1, A375 cells, read-out: inhibition of kinase labeling
Chain of CHK2 (O96017 whole entry): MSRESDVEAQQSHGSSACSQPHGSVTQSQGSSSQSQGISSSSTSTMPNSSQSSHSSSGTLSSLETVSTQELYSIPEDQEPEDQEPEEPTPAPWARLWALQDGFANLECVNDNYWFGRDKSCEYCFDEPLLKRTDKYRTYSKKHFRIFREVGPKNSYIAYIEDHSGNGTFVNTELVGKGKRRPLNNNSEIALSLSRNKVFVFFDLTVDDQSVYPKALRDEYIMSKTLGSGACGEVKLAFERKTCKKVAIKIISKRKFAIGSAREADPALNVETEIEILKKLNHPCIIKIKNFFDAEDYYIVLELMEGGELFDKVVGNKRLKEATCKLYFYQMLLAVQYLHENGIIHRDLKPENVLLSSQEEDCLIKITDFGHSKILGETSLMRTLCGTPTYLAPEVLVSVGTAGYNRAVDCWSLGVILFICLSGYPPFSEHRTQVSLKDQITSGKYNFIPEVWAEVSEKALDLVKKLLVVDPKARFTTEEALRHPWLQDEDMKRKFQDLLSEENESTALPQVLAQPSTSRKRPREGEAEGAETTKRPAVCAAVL

DNAPK = DNAPK (Homo sapiens (Human), UniProt P78527); type: binding; conditions: ATP, A375 cells, read-out: inhibition of kinase labeling
FER = FER (Homo sapiens (Human), UniProt P16591); type: binding; conditions: Lys1, A375 cells, read-out: inhibition of kinase labeling
FGR = FGR (Homo sapiens (Human), UniProt P09769); type: binding; conditions: Activation Loop, A375 cells, read-out: inhibition of kinase labeling
Chain of FGR (P09769 whole entry): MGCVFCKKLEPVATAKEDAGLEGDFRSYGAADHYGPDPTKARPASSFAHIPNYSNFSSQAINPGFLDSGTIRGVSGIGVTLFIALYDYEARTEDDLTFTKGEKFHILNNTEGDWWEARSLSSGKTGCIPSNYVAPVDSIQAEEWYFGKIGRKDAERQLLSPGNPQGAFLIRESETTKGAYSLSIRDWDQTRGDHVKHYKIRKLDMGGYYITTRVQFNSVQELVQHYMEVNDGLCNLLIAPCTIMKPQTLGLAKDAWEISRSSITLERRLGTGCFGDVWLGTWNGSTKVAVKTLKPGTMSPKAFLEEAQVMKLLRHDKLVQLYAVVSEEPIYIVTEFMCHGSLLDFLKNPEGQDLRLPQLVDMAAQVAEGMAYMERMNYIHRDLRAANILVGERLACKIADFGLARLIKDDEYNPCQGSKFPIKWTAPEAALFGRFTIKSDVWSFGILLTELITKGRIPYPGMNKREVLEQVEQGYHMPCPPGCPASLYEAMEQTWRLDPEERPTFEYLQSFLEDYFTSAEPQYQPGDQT

FRAP = FRAP (Homo sapiens (Human), UniProt P42345); type: binding; conditions: ATP, A375 cells, read-out: inhibition of kinase labeling
FYN, SRC, YES = type: binding, Homo sapiens; conditions: Activation Loop, 1 μM, A375 cells
GSK3B = GSK3B (Homo sapiens (Human), UniProt P49841); type: binding; conditions: Lys2, A375 cells, read-out: inhibition of kinase labeling
IKKe, TBK1 = type: binding, Homo sapiens; conditions: Lys2, 1 μM, A375 cells
ILK = ILK (Homo sapiens (Human), UniProt Q13418); type: binding; conditions: Protein Kinase Domain, A375 cells, read-out: inhibition of kinase labeling
LYN = LYN (Homo sapiens (Human), UniProt P07948); type: binding; conditions: read-out: inhibition of kinase labeling
Chain of LYN (P07948 whole entry): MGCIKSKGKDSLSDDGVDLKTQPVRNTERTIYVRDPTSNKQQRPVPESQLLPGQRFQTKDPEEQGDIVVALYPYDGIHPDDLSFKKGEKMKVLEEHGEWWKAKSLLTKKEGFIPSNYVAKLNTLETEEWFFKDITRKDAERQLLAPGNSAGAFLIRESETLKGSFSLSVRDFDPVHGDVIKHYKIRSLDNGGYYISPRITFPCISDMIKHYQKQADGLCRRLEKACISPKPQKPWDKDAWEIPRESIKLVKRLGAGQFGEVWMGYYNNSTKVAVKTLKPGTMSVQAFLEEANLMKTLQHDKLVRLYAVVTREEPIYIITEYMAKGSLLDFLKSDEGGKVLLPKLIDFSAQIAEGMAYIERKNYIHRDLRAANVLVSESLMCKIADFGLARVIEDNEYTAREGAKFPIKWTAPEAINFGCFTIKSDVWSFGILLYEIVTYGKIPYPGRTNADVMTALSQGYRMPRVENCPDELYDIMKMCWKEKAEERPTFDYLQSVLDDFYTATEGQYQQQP

MAP2K5 = MAP2K5 (Homo sapiens (Human), UniProt Q13163); type: binding; conditions: Lys2, A375 cells, read-out: inhibition of kinase labeling
MAP2K7 = MAP2K7 (Homo sapiens (Human), UniProt O14733); type: binding; conditions: Lys2, A375 cells, read-out: inhibition of kinase labeling
MARK1, MARK2 = type: binding, Homo sapiens; conditions: Lys1, 1 μM, A375 cells
MARK2, MARK3 = type: binding, Homo sapiens; conditions: Lys2, 1 μM, A375 cells
MASTL = MASTL (Homo sapiens (Human), UniProt Q96GX5); type: binding; conditions: Lys1, A375 cells, read-out: inhibition of kinase labeling
NDR1 = NDR1 (Homo sapiens (Human), UniProt Q15208); type: binding; conditions: Lys1, A375 cells, read-out: inhibition of kinase labeling
Chain of NDR1 (Q15208 whole entry): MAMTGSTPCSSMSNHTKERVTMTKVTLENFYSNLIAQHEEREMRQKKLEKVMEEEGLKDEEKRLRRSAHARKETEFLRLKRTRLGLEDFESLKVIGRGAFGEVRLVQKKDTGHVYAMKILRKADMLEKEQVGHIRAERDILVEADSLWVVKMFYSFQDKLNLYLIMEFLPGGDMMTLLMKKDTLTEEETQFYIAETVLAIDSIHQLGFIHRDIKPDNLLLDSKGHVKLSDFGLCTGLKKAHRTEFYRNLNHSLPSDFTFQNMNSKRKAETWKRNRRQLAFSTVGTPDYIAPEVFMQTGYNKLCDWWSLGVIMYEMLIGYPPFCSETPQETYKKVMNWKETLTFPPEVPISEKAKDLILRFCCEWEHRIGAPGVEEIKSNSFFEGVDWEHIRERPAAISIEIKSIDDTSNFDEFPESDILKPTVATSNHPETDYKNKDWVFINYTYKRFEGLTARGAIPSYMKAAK

NDR2 = NDR2 (Homo sapiens (Human), UniProt Q9Y2H1); type: binding; conditions: Lys2, A375 cells, read-out: inhibition of kinase labeling
NEK3 = NEK3 (Homo sapiens (Human), UniProt P51956); type: binding; conditions: Activation Loop, A375 cells, read-out: inhibition of kinase labeling
NEK9 = NEK9 (Homo sapiens (Human), UniProt Q8TD19); type: binding; conditions: Lys2, A375 cells, read-out: inhibition of kinase labeling
PI4KB = PI4KB (Homo sapiens (Human), UniProt Q9UBF8); type: binding; conditions: ATP, A375 cells, read-out: inhibition of kinase labeling
PIP5K3 = PIP5K3 (Homo sapiens (Human), UniProt Q9Y2I7); type: binding; conditions: ATP, A375 cells, read-out: inhibition of kinase labeling
PKCi = PKCi (Homo sapiens (Human), UniProt P41743); type: binding; conditions: Lys2, A375 cells, read-out: inhibition of kinase labeling
PKD2 = PKD2 (Homo sapiens (Human), UniProt Q9BZL6); type: binding; conditions: Lys1, A375 cells, read-out: inhibition of kinase labeling
PKN1 = PKN1 (Homo sapiens (Human), UniProt Q16512); type: binding; conditions: Lys1, A375 cells, read-out: inhibition of kinase labeling
PKR = PKR (Homo sapiens (Human), UniProt P19525); type: binding; conditions: Lys2, A375 cells, read-out: inhibition of kinase labeling
Chain of PKR (P19525 whole entry): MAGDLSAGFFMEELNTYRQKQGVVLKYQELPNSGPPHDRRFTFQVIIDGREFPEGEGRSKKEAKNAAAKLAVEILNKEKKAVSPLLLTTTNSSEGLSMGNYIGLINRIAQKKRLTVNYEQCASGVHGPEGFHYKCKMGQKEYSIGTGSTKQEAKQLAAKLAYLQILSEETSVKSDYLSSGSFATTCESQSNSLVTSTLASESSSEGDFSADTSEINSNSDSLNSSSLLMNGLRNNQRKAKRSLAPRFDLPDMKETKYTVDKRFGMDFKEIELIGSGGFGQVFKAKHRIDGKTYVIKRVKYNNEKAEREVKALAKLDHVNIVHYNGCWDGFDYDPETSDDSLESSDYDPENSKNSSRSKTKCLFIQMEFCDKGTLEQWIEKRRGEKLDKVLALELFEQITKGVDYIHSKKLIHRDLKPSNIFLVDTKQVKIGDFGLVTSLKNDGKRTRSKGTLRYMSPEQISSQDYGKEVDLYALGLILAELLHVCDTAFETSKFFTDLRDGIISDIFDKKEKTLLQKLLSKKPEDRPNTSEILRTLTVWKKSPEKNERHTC

PLK1 = PLK1 (Homo sapiens (Human), UniProt P53350); type: binding; conditions: Lys1, A375 cells, read-out: inhibition of kinase labeling
Chain of PLK1 (P53350 whole entry): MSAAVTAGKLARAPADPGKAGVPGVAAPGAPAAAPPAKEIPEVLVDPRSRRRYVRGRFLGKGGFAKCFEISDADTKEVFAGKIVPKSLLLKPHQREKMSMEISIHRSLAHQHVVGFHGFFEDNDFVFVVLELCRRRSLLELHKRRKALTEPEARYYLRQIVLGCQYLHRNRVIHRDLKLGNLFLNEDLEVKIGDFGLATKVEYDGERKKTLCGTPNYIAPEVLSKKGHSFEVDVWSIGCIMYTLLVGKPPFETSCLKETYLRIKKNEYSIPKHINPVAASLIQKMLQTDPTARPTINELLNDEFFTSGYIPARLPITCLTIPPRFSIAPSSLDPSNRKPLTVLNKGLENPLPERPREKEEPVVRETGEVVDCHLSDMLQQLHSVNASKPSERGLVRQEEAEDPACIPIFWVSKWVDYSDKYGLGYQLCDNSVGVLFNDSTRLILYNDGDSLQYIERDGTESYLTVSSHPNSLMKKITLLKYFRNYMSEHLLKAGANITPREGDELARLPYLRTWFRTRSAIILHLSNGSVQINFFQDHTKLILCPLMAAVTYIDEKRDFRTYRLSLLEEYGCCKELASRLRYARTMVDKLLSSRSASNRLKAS

PYK2 = PYK2 (Homo sapiens (Human), UniProt Q14289); type: binding; conditions: Activation Loop, A375 cells, read-out: inhibition of kinase labeling
TAO1, TAO3 = type: binding, Homo sapiens; conditions: Lys2, 1 μM, A375 cells
TAO2 = TAO2 (Homo sapiens (Human), UniProt Q9UL54); type: binding; conditions: Lys2, A375 cells, read-out: inhibition of kinase labeling
TEC = TEC (Homo sapiens (Human), UniProt P42680); type: binding; conditions: Activation Loop, A375 cells, read-out: inhibition of kinase labeling
TLK2 = TLK2 (Homo sapiens (Human), UniProt Q86UE8); type: binding; conditions: Lys2, A375 cells, read-out: inhibition of kinase labeling
Chain of TLK2 (Q86UE8 whole entry): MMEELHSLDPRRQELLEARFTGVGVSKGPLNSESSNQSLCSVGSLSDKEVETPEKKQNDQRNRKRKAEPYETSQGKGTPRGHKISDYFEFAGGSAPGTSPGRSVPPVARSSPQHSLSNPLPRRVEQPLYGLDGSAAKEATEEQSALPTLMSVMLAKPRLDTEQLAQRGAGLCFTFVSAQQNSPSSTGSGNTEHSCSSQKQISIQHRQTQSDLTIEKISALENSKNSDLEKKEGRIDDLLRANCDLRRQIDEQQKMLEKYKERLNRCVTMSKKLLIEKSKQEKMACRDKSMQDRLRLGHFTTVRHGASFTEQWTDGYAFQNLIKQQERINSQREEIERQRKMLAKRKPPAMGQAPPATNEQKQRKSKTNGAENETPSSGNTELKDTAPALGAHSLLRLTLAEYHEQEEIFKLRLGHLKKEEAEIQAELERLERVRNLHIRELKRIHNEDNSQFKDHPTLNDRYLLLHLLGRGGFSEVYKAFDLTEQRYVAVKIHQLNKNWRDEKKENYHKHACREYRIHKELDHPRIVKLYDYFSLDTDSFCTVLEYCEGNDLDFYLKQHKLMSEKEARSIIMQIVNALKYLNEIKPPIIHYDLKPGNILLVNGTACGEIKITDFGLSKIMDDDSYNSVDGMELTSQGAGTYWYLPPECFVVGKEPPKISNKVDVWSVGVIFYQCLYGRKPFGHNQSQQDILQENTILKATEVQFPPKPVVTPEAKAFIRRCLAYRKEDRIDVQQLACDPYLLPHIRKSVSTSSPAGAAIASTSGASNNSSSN

[1] = tested on: ZC1/HGK, ZC2/TNIK, ZC3/MINK; type: binding, Homo sapiens; conditions: Lys2, 1 μM, A375 cells

In the case of `Cc1ccc(C(=O)Nc2cccc(C(C)(C)C#N)c2)cc1NC(=O)c1cncc(-c2cccs2)c1` [I-6, N-(5-((3-(2-cyanopropan-2-yl)phenyl)carbamoyl)-2-methylphenyl)-5-(thiophen-2-yl)nicotinamide], the “inhibition of kinase labeling” value (AMPKa1, AMPKa2) is reported as 15.3%, the inhibition at 1 µM (ATR) is reported as 26.2% and the inhibition at 1 µM (AurA) is reported as -21.6%. For the same compound, the inhibition at 1 µM (BTK; Activation Loop, A375 cells) was -12.5%, the inhibition at 1 µM (BTK; Lys1, A375 cells) was 7.8% and the inhibition at 1 µM (CaMK1d) was -17.8%. The inhibition at 1 µM (CaMK4) was 20.7%, the inhibition at 1 µM (CDK2) was 8.6% and the inhibition at 1 µM (CDK5) was 9.3%. It also gave an inhibition at 1 µM (CHK2) of 4.7%, an inhibition at 1 µM (DNAPK) of 4.6% and an inhibition at 1 µM (FER) of -9.6%. For the same compound, the inhibition at 1 µM (FGR) was 3.5%, the inhibition at 1 µM (FRAP) was -8.8% and the “inhibition of kinase labeling” value (FYN, SRC, YES) was 55.7%. The inhibition at 1 µM (GSK3B) was 15.9%, the “inhibition of kinase labeling” value (IKKe, TBK1) was 24.8% and the inhibition at 1 µM (ILK) was 17.2%. The inhibition at 1 µM (LYN; Activation Loop, A375 cells) was 68.5%, the inhibition at 1 µM (LYN; Lys1, A375 cells) was 87.6% and the inhibition at 1 µM (MAP2K5) was 28.7%. For the same compound, the inhibition at 1 µM (MAP2K7) was -3%, the “inhibition of kinase labeling” value (MARK1, MARK2) was −4.9% and the “inhibition of kinase labeling” value (MARK2, MARK3) was 17.2%. For the same compound, the inhibition at 1 µM (MASTL) was -3.7%, the inhibition at 1 µM (NDR1) was -10.5% and the inhibition at 1 µM (NDR2) was -12.5%. The inhibition at 1 µM (NEK3) was 10%, the inhibition at 1 µM (NEK9) was -0.3% and the inhibition at 1 µM (PI4KB) was -15.1%. The inhibition at 1 µM (PIP5K3) was 17.8%, the inhibition at 1 µM (PKCi) was -17.5% and the inhibition at 1 µM (PKD2) was -17.8%. The inhibition at 1 µM (PKN1) was -35.2%, the inhibition at 1 µM (PKR) was 3.2% and the inhibition at 1 µM (PLK1) was -5.4%. For the same compound, the inhibition at 1 µM (PYK2) was 5.4%, the “inhibition of kinase labeling” value (TAO1, TAO3) was 11.9% and the inhibition at 1 µM (TAO2) was 33.4%. The inhibition at 1 µM (TEC) was -28.9%, the inhibition at 1 µM (TLK2) was -18.8% and the “inhibition of kinase labeling” value [1] was 27%.
